According to PubChem BioAssay AID330 (DTP/NCI, 2004):
Values joined by “and” are separate entries in the source; they are usually repeats but may differ in a detail not shown here. Equal entries are not always repeated. Inconclusive results and toxic doses are left out.

Tested on: P388 leukemia ip, CD2F1 mice, survival T/C
Test: NCI In Vivo Anticancer Drug Screen. Data for tumor model P388 Leukemia (intraperitoneal) in CD2F1 (CDF1) mice
Details: endpoint: median survival time, higher = longer survival
Method in brief: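 Mice carrying the transplanted tumor received test compound or vehicle. Survival was recorded in each group, and the value is the treated-group measurement divided by that of the vehicle-treated control group.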

[1] = dose: 50.0 mg/kg/injection, schedule: Q01DX009 (ip), vehicle: saline
[2] = dose: 100.0 mg/kg/injection, schedule: Q01DX009 (ip), vehicle: saline
[3] = dose: 200.0 mg/kg/injection, schedule: Q01DX009 (ip), vehicle: saline
[4] = dose: 12.5 mg/kg/injection, schedule: Q01DX005 (ip), vehicle: saline
[5] = dose: 25.0 mg/kg/injection, schedule: Q01DX005 (ip), vehicle: saline
[6] = dose: 50.0 mg/kg/injection, schedule: Q01DX005 (ip), vehicle: saline
[7] = dose: 25.0 mg/kg/injection, schedule: Q01DX005 (ip), vehicle: saline with Tween-80
[8] = dose: 50.0 mg/kg/injection, schedule: Q01DX005 (ip), vehicle: saline with Tween-80
[9] = dose: 100.0 mg/kg/injection, schedule: Q01DX005 (ip), vehicle: saline with Tween-80
[10] = dose: 200.0 mg/kg/injection, schedule: Q01DX005 (ip), vehicle: saline with Tween-80
[11] = dose: 60.0 mg/kg/injection, schedule: Q01DX005 (ip), vehicle: saline with Tween-80
[12] = dose: 120.0 mg/kg/injection, schedule: Q01DX005 (ip), vehicle: saline with Tween-80
[13] = dose: 240.0 mg/kg/injection, schedule: Q01DX005 (ip), vehicle: saline with Tween-80
[14] = dose: 50.0 mg/kg/injection, schedule: Q01DX009 (ip), vehicle: Klucel (hydroxypropylcellulose) (HPC)
[15] = dose: 100.0 mg/kg/injection, schedule: Q01DX009 (ip), vehicle: Klucel (hydroxypropylcellulose) (HPC)
[16] = dose: 50.0 mg/kg/injection, schedule: Q01DX009 (ip), vehicle: saline with Tween-80
[17] = dose: 100.0 mg/kg/injection, schedule: Q01DX009 (ip), vehicle: saline with Tween-80
[18] = dose: 200.0 mg/kg/injection, schedule: Q01DX009 (ip), vehicle: saline with Tween-80
[19] = dose: 7.5 mg/kg/injection, schedule: Q01DX005 (ip), vehicle: saline with Tween-80
[20] = dose: 15.0 mg/kg/injection, schedule: Q01DX005 (ip), vehicle: saline with Tween-80

CCn1ncc2c1nc(-c1ccccc1)c[n+]2[O-]
T/C (dose: 60.0 mg/kg/injection, schedule: Q01DX005 (ip), vehicle: Klucel (hydroxypropylcellulose) (HPC)): 92 % of control
T/C (dose: 120.0 mg/kg/injection, schedule: Q01DX005 (ip), vehicle: Klucel (hydroxypropylcellulose) (HPC)): 100 % of control
T/C (dose: 240.0 mg/kg/injection, schedule: Q01DX005 (ip), vehicle: Klucel (hydroxypropylcellulose) (HPC)): 101 % of control

CC(C)C(N)CO (stereo unspecified)
T/C [1]: 107 % of control
T/C [2]: 106 % of control
T/C [3]: 100 % of control

CC(=O)CC1CCCC(C#N)N1 (stereo unspecified)
T/C [4]: 97 % of control
T/C [5]: 101 % of control
T/C [6]: 100 % of control and 98 % of control

CCOC(=O)c1ccccc1N
T/C [7]: 100 % of control
T/C [8]: 105 % of control
T/C [9]: 99 % of control
T/C [10]: 100 % of control

CCCCN(CCCC)CC(O)c1ccc(F)c2ccccc12 (stereo unspecified)
T/C [4]: 96 % of control
T/C [5]: 105 % of control
T/C [8]: 113 % of control
T/C [6]: 99 % of control
T/C [9]: 97 % of control

CCc1cccc(CC)c1N1C(=O)C(=O)C(C(C)=O)C1=O (stereo unspecified)
T/C [7]: 101 % of control
T/C [8]: 99 % of control and 101 % of control
T/C [9]: 101 % of control
T/C [10]: 89 % of control

O=C1COc2ccccc2OCCOCCOc2ccccc2OC1
T/C [11]: 97 % of control
T/C [12]: 98 % of control
T/C [13]: 96 % of control

Clc1nc(-c2ccccc2)ns1
T/C (dose: 25.0 mg/kg/injection, schedule: Q01DX009 (ip), vehicle: Klucel (hydroxypropylcellulose) (HPC)): 86 % of control
T/C [14]: 106 % of control
T/C [15]: 102 % of control
T/C (dose: 200.0 mg/kg/injection, schedule: Q01DX009 (ip), vehicle: Klucel (hydroxypropylcellulose) (HPC)): 104 % of control

Nc1nnc(N)n1N
T/C [16]: 108 % of control
T/C [17]: 115 % of control
T/C [18]: 99 % of control
T/C (dose: 400.0 mg/kg/injection, schedule: Q01DX009 (ip), vehicle: saline with Tween-80): 93 % of control

COC(=O)C(NP(=O)(NC(C(=O)OC)c1ccccc1)N(CCCl)CCCl)c1ccccc1 (stereo unspecified)
T/C [19]: 102 % of control
T/C [20]: 100 % of control
T/C (dose: 30.0 mg/kg/injection, schedule: Q01DX005 (ip), vehicle: saline with Tween-80): 101 % of control

Cc1cccc(N=C(c2ccccc2)C2C(=O)c3ccccc3C2=O)c1
T/C [8]: 94 % of control
T/C [9]: 94 % of control
T/C [10]: 91 % of control

Cc1cccc[n+]1CC(=O)C[n+]1ccccc1C
T/C [6]: 95 % of control
T/C (dose: 100.0 mg/kg/injection, schedule: Q01DX005 (ip), vehicle: saline): 101 % of control

O=S1(=O)CCN(Cc2ccncc2)CC1
T/C [1]: 100 % of control
T/C [2]: 98 % of control
T/C [3]: 100 % of control

CN(C)c1ccc2nc(/C=N/NC(N)=S)ccc2c1
T/C (dose: 100.0 mg/kg/injection, schedule: Q04DX002 (ip), vehicle: distilled water + Tween-80 + alcohol): 101 % of control
T/C (dose: 200.0 mg/kg/injection, schedule: Q04DX002 (ip), vehicle: distilled water + Tween-80 + alcohol): 92 % of control

S=c1[nH]c(Cl)c(Cl)cc1Cl
T/C [16]: 98 % of control
T/C [17]: 105 % of control
T/C [18]: 99 % of control

N#CC(C(=O)CCCC(=O)Nc1ccccc1[N+](=O)[O-])c1ccc(Cl)cc1Cl (stereo unspecified)
T/C [11]: 106 % of control
T/C [12]: 104 % of control
T/C [13]: 101 % of control

CC12CCC(O)CC1CCC1C2CCC2(C)C(c3ccc(=O)oc3)CC3OC312 (stereo unspecified)
T/C (dose: 0.31 mg/kg/injection, schedule: Q01DX009 (ip), vehicle: saline with Tween-80): 108 % of control
T/C (dose: 0.62 mg/kg/injection, schedule: Q01DX009 (ip), vehicle: saline with Tween-80): 100 % of control
T/C (dose: 1.25 mg/kg/injection, schedule: Q01DX009 (ip), vehicle: saline with Tween-80): 104 % of control
T/C (dose: 2.5 mg/kg/injection, schedule: Q01DX009 (ip), vehicle: saline with Tween-80): 115 % of control
T/C (dose: 5.0 mg/kg/injection, schedule: Q01DX009 (ip), vehicle: saline with Tween-80): 100 % of control and 87 % of control
T/C (dose: 10.0 mg/kg/injection, schedule: Q01DX009 (ip), vehicle: saline with Tween-80): 87 % of control
T/C (dose: 20.0 mg/kg/injection, schedule: Q01DX009 (ip), vehicle: saline with Tween-80): 88 % of control

Cc1cn(O)c(=N)c(C(N)=O)n1
T/C (dose: 37.5 mg/kg/injection, schedule: Q01DX009 (ip), vehicle: saline with Tween-80): 90 % of control
T/C (dose: 75.0 mg/kg/injection, schedule: Q01DX009 (ip), vehicle: saline with Tween-80): 100 % of control
T/C (dose: 150.0 mg/kg/injection, schedule: Q01DX009 (ip), vehicle: saline with Tween-80): 107 % of control

O=C(Nc1ccc(NC2=NCCN2)cc1)c1ccc(C(=O)Nc2ccc(NC3=NCCN3)cc2)c([N+](=O)[O-])c1
T/C (dose: 1.56 mg/kg/injection, schedule: Q01DX005 (ip), vehicle: Klucel (hydroxypropylcellulose) (HPC)): 116 % of control
T/C (dose: 6.25 mg/kg/injection, schedule: Q01DX005 (ip), vehicle: Klucel (hydroxypropylcellulose) (HPC)): 158 % of control
T/C (dose: 12.5 mg/kg/injection, schedule: Q01DX005 (ip), vehicle: Klucel (hydroxypropylcellulose) (HPC)): 158 % of control

O=C1CCSc2ccccc21
T/C [17]: 95 % of control
T/C [18]: 109 % of control

N#CC1(C#N)C2CCCCC21 (stereo unspecified)
T/C (dose: 3.75 mg/kg/injection, schedule: Q01DX005 (ip), vehicle: saline with Tween-80): 107 % of control
T/C [19]: 100 % of control
T/C [20]: 96 % of control

CCO/C(C)=C\C(=O)O
T/C [8]: 98 % of control
T/C [9]: 97 % of control
T/C [10]: 97 % of control

CC(C)(C)c1cc(C(C)(C)O)c2c(c1)C(C)(C)OS2(=O)=O
T/C (dose: 100.0 mg/kg/injection, schedule: Q04DX002 (ip), vehicle: Klucel (hydroxypropylcellulose) (HPC)): 96 % of control
T/C (dose: 200.0 mg/kg/injection, schedule: Q04DX002 (ip), vehicle: Klucel (hydroxypropylcellulose) (HPC)): 87 % of control
T/C (dose: 400.0 mg/kg/injection, schedule: Q04DX002 (ip), vehicle: Klucel (hydroxypropylcellulose) (HPC)): 97 % of control

Oc1c(Cl)cc(Cl)cc1/C=N/Nc1ccc2ccccc2n1
T/C (dose: 50.0 mg/kg/injection, schedule: Q04DX003 (ip), vehicle: saline with Tween-80): 89 % of control
T/C (dose: 100.0 mg/kg/injection, schedule: Q04DX003 (ip), vehicle: saline with Tween-80): 94 % of control
T/C (dose: 200.0 mg/kg/injection, schedule: Q04DX003 (ip), vehicle: saline with Tween-80): 100 % of control

CN(C)CCC(=O)c1ccc(Cl)c(Cl)c1
T/C [14]: 107 % of control
T/C [1]: 108 % of control
T/C [15]: 109 % of control
T/C [2]: 110 % of control
T/C [3]: 109 % of control

CNCC1CCCO1 (stereo unspecified)
T/C (dose: 25.0 mg/kg/injection, schedule: Q04DX003 (ip), vehicle: saline): 100 % of control
T/C (dose: 50.0 mg/kg/injection, schedule: Q04DX003 (ip), vehicle: saline): 100 % of control
T/C (dose: 100.0 mg/kg/injection, schedule: Q04DX003 (ip), vehicle: saline): 100 % of control
T/C (dose: 200.0 mg/kg/injection, schedule: Q04DX003 (ip), vehicle: saline): 99 % of control

COc1ccc(/C=C2\C(=O)C(c3ccccc3)N(c3ccccc3)C2=O)cc1 (stereo unspecified)
T/C (dose: 12.5 mg/kg/injection, schedule: Q04DX002 (ip), vehicle: saline with Tween-80): 91 % of control
T/C (dose: 25.0 mg/kg/injection, schedule: Q04DX002 (ip), vehicle: saline with Tween-80): 92 % of control
T/C (dose: 50.0 mg/kg/injection, schedule: Q04DX002 (ip), vehicle: saline with Tween-80): 98 % of control

O=C1CCCC/C1=C\N(c1ccccc1)c1ccccc1
T/C [16]: 106 % of control
T/C [17]: 98 % of control
T/C [18]: 95 % of control

C/C(=N\N=c1\sc2ccccc2n1CC(=O)O)c1ccc([N+](=O)[O-])cc1
T/C (dose: 100.0 mg/kg/injection, schedule: Q01DX001 (ip), vehicle: saline with Tween-80): 93 % of control
T/C (dose: 200.0 mg/kg/injection, schedule: Q01DX001 (ip), vehicle: saline with Tween-80): 101 % of control
